The compounds below were run against Protein Kinase C beta 2 (PKCβII) (Homo sapiens (Human), UniProt P05771) (assay: PKCβII coupled PK/LDH spectrophotometric kinase assay). Conditions: apparent Ki, ATP-competitive model (Morrison equation); 0.1 mM ATP, 30° C.; read-out: PKCb Ki.
Type: biochemical
Experimental: This transfer is coupled to the oxidation of β-NADH through the activities of Pyruvate Kinase (PK) and Lactate Dehydrogenase (LDH). β-NADH conversion to NAD+ is monitored by the decrease in absorbance at 340 nm (e=6.22 cm^−1 mM^−1) using a Molecular Devices SPECTRA max PLUS spectrophotometer.
A typical assay was carried out on a 96-well, clear microtiter plate in a Molecular Devices spectrophotometer for 20 minutes at 30° C. in 0.1 mL of assay buffer containing 50 mM HEPES, pH 7.4, 5 nM PKC, 23 units of pyruvate kinase, 33 units of lactate dehydrogenase, 0.15 mM peptide, 0.1 mM ATP, 1 mM DTT, 4 mM PEP, 8 mM MgCl2, 0.3 mM NADH, 60 mM CaCl2, 10 mg/mL PS, 50 ng/mL PMA, 7.5% DMSO and from about 10,000 nM to 0.169 nM compound inhibitor. Stock solutions of 3-sn-phosphatidyl-L-serine (PS) and phorbol-12-myristate-13-acetate (PMA) were sonicated for 30 seconds just prior to addition to assay buffer and assays were initiated by the addition of 100 μM ATP.
Enzyme turnover values (kcat) were calculated according to […], where [E] is the total enzyme concentration. Enzyme inhibition constants (apparent K values) were determined by fitting initial velocities at variable inhibitor concentrations to a model for ATP competitive inhibition based on the Morrison equation). Morrison, J. F., Biochim. Biophys Acta 185: 269-286 (1969).

Chain of Protein Kinase C beta 2 (PKCβII) (P05771 other isoform, or with tags, fused parts or gaps): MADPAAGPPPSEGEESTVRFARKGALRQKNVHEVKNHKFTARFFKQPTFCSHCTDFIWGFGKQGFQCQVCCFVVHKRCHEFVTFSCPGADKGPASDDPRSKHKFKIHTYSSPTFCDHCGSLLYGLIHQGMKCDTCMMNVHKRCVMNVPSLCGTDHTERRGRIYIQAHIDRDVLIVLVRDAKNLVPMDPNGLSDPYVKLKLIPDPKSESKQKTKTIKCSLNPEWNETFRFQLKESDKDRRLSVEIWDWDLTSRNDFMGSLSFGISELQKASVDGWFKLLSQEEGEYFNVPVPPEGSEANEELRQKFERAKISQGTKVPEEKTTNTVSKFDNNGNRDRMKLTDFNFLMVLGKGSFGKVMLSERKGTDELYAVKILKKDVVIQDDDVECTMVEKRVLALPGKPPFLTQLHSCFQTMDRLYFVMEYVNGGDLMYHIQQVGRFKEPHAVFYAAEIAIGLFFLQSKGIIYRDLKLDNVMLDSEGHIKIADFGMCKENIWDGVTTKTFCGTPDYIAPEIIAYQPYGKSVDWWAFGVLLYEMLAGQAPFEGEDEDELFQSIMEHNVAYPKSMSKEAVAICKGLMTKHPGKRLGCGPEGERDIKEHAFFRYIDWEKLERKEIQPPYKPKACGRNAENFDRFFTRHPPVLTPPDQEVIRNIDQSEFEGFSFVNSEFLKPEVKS

| Ki [nM] | SMILES |
| --- | --- |
| 95.6 | COCCCN1C[C@H](C)N(C(=O)N2Cc3c(NC(=O)c4ocnc4C)n[nH]c3C2(C)C)C[C@H]1C [Example F8] |
| 12.5 | C[C@H]1CN2CCC[C@H]2CN1C(=O)N1Cc2c(NC(=O)c3cnc4ccccc4n3)n[nH]c2C1(C)C [Example E7] |
| < 10 | C[C@@H]1CN(C(=O)N2Cc3c(NC(=O)c4ccc(Cl)cn4)n[nH]c3C2(C)C)[C@@H](C)CN1C1CCOCC1 [Example F56] |
| < 10 | C[C@@H]1CN(C(=O)N2Cc3c(NC(=O)c4ccc(C#N)cn4)n[nH]c3C2(C)C)[C@@H](C)CN1C1CCOCC1 [Example G1, 5-cyano-N-(5-{[(2S,5R)-2,5-dimethyl-4-(tetrahydro-2H-pyran-4-yl)piperazin-1-yl]carbonyl}-6,6-dimethyl-1,4,5,6-tetrahydropyrrolo[3,4-c]pyrazol-3-yl)pyridine-2-carboxamide] |
| 37.3 | CCc1cc(C(=O)Nc2n[nH]c3c2CN(C(=O)N2C[C@@H](C)N(CCCOC)C[C@@H]2C)C3(C)C)n(C)n1 [Example F4] |
| 78.4 | COCCCN1C[C@H](C)N(C(=O)N2Cc3c(NC(=O)c4cc(C)nc(C)n4)n[nH]c3C2(C)C)C[C@H]1C [Example F2] |
| 72.9 | Cc1cnc(C(=O)Nc2n[nH]c3c2CN(C(=O)N2C[C@@H]4CCCN4C[C@@H]2C)C3(C)C)cn1 [Example E2] |
| 135 | C[C@H]1CN2CCC[C@H]2CN1C(=O)N1Cc2c(NC(=O)c3c(F)ccc(F)c3F)n[nH]c2C1(C)C [Example E13] |
| 24 | C[C@@H]1CN(C(=O)N2Cc3c(NC(=O)c4ccncn4)n[nH]c3C2(C)C)[C@@H](C)CN1C1CCOCC1 [Example F53] |
| 45.1 | Cc1ocnc1C(=O)Nc1n[nH]c2c1CN(C(=O)N1C[C@@H](C)N(C)C[C@@H]1C)C2(C)C [Example C4] |
| 71.8 | COCCCN1C[C@H](C)N(C(=O)N2Cc3c(NC(=O)c4oc(C)cc4C)n[nH]c3C2(C)C)C[C@H]1C [Example F5] |

Further lines, the compound ahead of its results:

| SMILES | Ki [nM] |
| --- | --- |
| Cc1cc(C(=O)Nc2n[nH]c3c2CN(C(=O)N2C[C@@H]4CCCN4C[C@@H]2C)C3(C)C)nn1C [Example A52] | 149 |
| CCc1ccc(C(=O)Nc2n[nH]c3c2CN(C(=O)N2C[C@@H]4CCCN4C[C@@H]2C)C3(C)C)cc1 [Example A61] | 23.8 |
| Cc1cc(C(=O)Nc2n[nH]c3c2CN(C(=O)N2C[C@@H](C)N(CC4CCOCC4)C[C@@H]2C)C3(C)C)no1 [Example F13] | 41.1 |
| C[C@H]1CN2C[C@@H](F)C[C@H]2CN1C(=O)N1Cc2c(NC(=O)c3ccccn3)n[nH]c2C1(C)C [Example A105] | 109 |
| COc1cccc(C(=O)Nc2n[nH]c3c2CN(C(=O)N2C[C@@H]4CCCN4C[C@@H]2Cc2ccccc2)C3(C)C)c1 [Example A17] | 16.1 |
| COc1ccc(C(=O)Nc2n[nH]c3c2CN(C(=O)N2C[C@@H]4CCCN4C[C@@H]2C)C3(C)C)cc1 [Example A40] | 32.7 |
| COCCN1C[C@H](C)N(C(=O)N2Cc3c(NC(=O)c4ccccn4)n[nH]c3C2(C)C)C[C@H]1C [Example A93] | 63.6 |
| C[C@@H]1CN(C(=O)N2Cc3c(NC(=O)c4ccccn4)n[nH]c3C2(C)C)[C@@H](C)CN1CCOCCO [Example A156] | 108 |
| C[C@H]1CN(C)C2(CCC2)CN1C(=O)N1Cc2c(NC(=O)c3ccccn3)n[nH]c2C1(C)C [Example A133] | 8.58 |
| C[C@@H]1CN(C(=O)N2Cc3c(NC(=O)c4ccccn4)n[nH]c3C2(C)C)[C@@H](C)CN1CC1CCOC1 (stereo partly drawn) [Example A147] | < 10 |
| COc1cccc(C(=O)Nc2n[nH]c3c2CN(C(=O)N2C[C@@H]4CCCN4C[C@@H]2C)C3(C)C)c1 [Example E5] | 37.5 |
| C[C@H]1CN2CCC[C@H]2CN1C(=O)N1Cc2c(NC(=O)c3ccc(C#N)cc3F)n[nH]c2C1(C)C [Example A66] | 122 |
| CC1(C)CN2CCC[C@H]2CN1C(=O)N1Cc2c(NC(=O)c3ccccn3)n[nH]c2C1(C)C [Example A82] | 81.8 |
| C[C@H]1CN2CCC[C@H]2CN1C(=O)N1Cc2c(NC(=O)c3ccc(Cl)c(Cl)c3)n[nH]c2C1(C)C [Example A36] | 13.9 |
| CC1(C)c2[nH]nc(NC(=O)c3cccc(F)c3F)c2CN1C(=O)N1C[C@@H]2CCCN2C[C@@H]1Cc1ccccc1 [Example A20] | 50.8 |
| C[C@H]1CN2CCC[C@H]2CN1C(=O)N1Cc2c(NC(=O)c3cc(Cl)ccc3F)n[nH]c2C1(C)C [Example A33] | 82.7 |
| CN1CCN(C(=O)N2Cc3c(NC(=O)c4cc5ccccc5o4)n[nH]c3C2(C)C)[C@@H](Cc2ccccc2)C1 [Example A7] | 124 |
| COCCN1C[C@H](C)N(C(=O)N2Cc3c(NC(=O)c4ccc(F)cn4)n[nH]c3C2(C)C)C[C@H]1C [Example A164] | 56.9 |
| Cc1cc(C)nc(C(=O)Nc2n[nH]c3c2CN(C(=O)N2C[C@@H]4CCCN4C[C@@H]2C)C3(C)C)c1 [Example A51] | 20.9 |
| C[C@@H]1CN(C(=O)N2Cc3c(NC(=O)c4ccccn4)n[nH]c3C2(C)C)[C@@H](C)CN1[C@@H](C)CCO [Example A155] | 43.3 |
| C[C@H]1CN2CCC[C@H]2CN1C(=O)N1Cc2c(NC(=O)c3ccc(Cl)cn3)n[nH]c2C1(C)C [Example A67] | 24.3 |
| C[C@@H]1CN(C(=O)N2Cc3c(NC(=O)c4cn(C)cn4)n[nH]c3C2(C)C)[C@@H](C)CN1CC1CCOCC1 [Example F9] | 62.4 |
| CC1(C)c2[nH]nc(NC(=O)c3ccccn3)c2CN1C(=O)N1C[C@@H]2CCCN2C[C@@H]1CC1CCCCC1 [Example A56] | 18.1 |
| CCN1CCN(C(=O)N2Cc3c(NC(=O)c4ccccn4)n[nH]c3C2(C)C)CC1C (stereo not drawn) [Example A128] | 156 |
| C[C@H]1CN2CCC[C@H]2CN1C(=O)N1Cc2c(NC(=O)c3cncs3)n[nH]c2C1(C)C [Example A43] | 135 |

| SMILES | Ki [nM] |
| --- | --- |
| C[C@@H]1CN(C(=O)N2Cc3c(NC(=O)c4ccccn4)n[nH]c3C2(C)C)[C@@H](C)CN1CCCCC#N [Example A144] | 38.3 |
| C[C@@H]1CN(C(=O)N2Cc3c(NC(=O)c4ccc(F)cn4)n[nH]c3C2(C)C)[C@@H](C)CN1CCCO [Example A162] | 21.7 |
| CC[C@H]1CN2CCC[C@H]2CN1C(=O)N1Cc2c(NC(=O)c3ccc(F)cc3)n[nH]c2C1(C)C [Example A73] | 115 |
| CC1(C)c2[nH]nc(NC(=O)c3cccc(Cl)n3)c2CN1C(=O)N1CCN2CCCC2C1 (stereo not drawn) [Example A23] | 55.9 |
| CC1(C)c2[nH]nc(NC(=O)c3cccc(Oc4ccccc4)c3)c2CN1C(=O)N1CCNCC1c1ccccc1 (stereo not drawn) [Example A10] | 55.9 |
| C[C@H]1CN2CCC[C@H]2CN1C(=O)N1Cc2c(NC(=O)c3ccc(C(F)(F)F)cn3)n[nH]c2C1(C)C [Example A130] | 31.5 |
| CC1(C)c2[nH]nc(NC(=O)c3ccc4ccccc4n3)c2CN1C(=O)N1CCN2CCCC2C1 (stereo not drawn) [Example A11] | 73.9 |
| CC1(C)c2[nH]nc(NC(=O)c3cccs3)c2CN1C(=O)N1CCN2CCCC2C1 (stereo not drawn) [Example A15] | 136 |
| C[C@H]1CN2CCC[C@@H]2CN1C(=O)N1Cc2c(NC(=O)c3ccccn3)n[nH]c2C1(C)C [Example A77] | 77.8 |
| Cc1cccc(C(=O)Nc2n[nH]c3c2CN(C(=O)N2C[C@@H]4CCCN4C[C@@H]2C)C3(C)C)c1 [Example A65] | 54.5 |
| CC(C)[C@H]1CN2CCC[C@H]2CN1C(=O)N1Cc2c(NC(=O)c3ccccn3)n[nH]c2C1(C)C [Example A100] | 14.1 |
| C[C@H]1CN2CCC[C@H]2CN1C(=O)N1Cc2c(NC(=O)c3cc(N(C)C)ccn3)n[nH]c2C1(C)C [Example A87] | 32.3 |
| CC1(C)c2[nH]nc(NC(=O)c3ccccc3Cl)c2CN1C(=O)N1C[C@@H]2CCCN2C[C@@H]1Cc1ccccc1 [Example A19] | 91.4 |
| CCCN1C[C@H](C)N(C(=O)N2Cc3c(NC(=O)c4ccc(F)cc4F)n[nH]c3C2(C)C)C[C@H]1CCO [Example A102] | 45.9 |
| C[C@H]1CN2CCC[C@H]2CN1C(=O)N1Cc2c(NC(=O)c3cc(C(F)(F)F)ccc3F)n[nH]c2C1(C)C [Example A35] | 176 |
| CCC1(C)c2[nH]nc(NC(=O)c3ncc(F)cc3F)c2CN1C(=O)C1C[C@@H]2CCCN2C[C@@H]1C (stereo partly drawn) [Example A86] | 74.1 |
| C[C@H]1CN2CCC[C@H]2CN1C(=O)N1Cc2c(NC(=O)c3ccc(Br)cn3)n[nH]c2C1(C)C [Example A91] | 20.3 |
| C[C@H]1CN(C)C(C)(C)CN1C(=O)N1Cc2c(NC(=O)c3ccc(F)cc3F)n[nH]c2C1(C)C [Example A114] | 87.1 |
| C[C@H]1CN2CCC[C@H]2CN1C(=O)N1Cc2c(NC(=O)c3cscn3)n[nH]c2C1(C)C [Example A44] | 43.5 |
| COc1cc(C(=O)Nc2n[nH]c3c2CN(C(=O)N2C[C@@H]4CCCN4C[C@@H]2C)C3(C)C)ccc1Cl [Example A48] | 68.8 |
| C[C@H]1CN2CCC[C@H]2CN1C(=O)N1Cc2c(NC(=O)c3nc4ccccc4s3)n[nH]c2C1(C)C [Example A54] | 49.9 |
| CCc1ocnc1C(=O)Nc1n[nH]c2c1CN(C(=O)N1C[C@@H](C)N(CC3CCOCC3)C[C@@H]1C)C2(C)C [Example F15] | 52.1 |
| C[C@@H]1CN(C(=O)N2Cc3c(NC(=O)c4cc(C5CC5)on4)n[nH]c3C2(C)C)[C@@H](C)CN1C [Example A140] | 26.8 |
| C[C@H]1CN2CCC[C@H]2CN1C(=O)N1Cc2c(NC(=O)c3cccc(Cl)c3)n[nH]c2C1(C)C [Example A31] | 21.3 |

Reference: patent US8999981B2, “3-amido-pyrrolo[3,4-C]pyrazole-5(1H, 4H,6H) carbaldehyde derivatives” (Pfizer Inc., priority 2007, dated 2015)
